Data from US11590116B2 (THERAVANCE BIOPHARMA R&D IP, LLC, priority 2019, dated 2023).

Columns and labels:
[1] = target: T1, recombinant human ALK5 (TGF-βR1) protein (Homo sapiens, UniProt P36897); experiment: Biochemical ALK5 (TGF-βR1) assay to measure pKi (LANCE Ultra ULight kinase assay); settings: apparent pKi from pIC50 by Cheng-Prusoff, read-out: ALK5 pKi (converted)
T1 construct: purchased Life Technologies PR9075A
T1 sequence (P36897 34-503): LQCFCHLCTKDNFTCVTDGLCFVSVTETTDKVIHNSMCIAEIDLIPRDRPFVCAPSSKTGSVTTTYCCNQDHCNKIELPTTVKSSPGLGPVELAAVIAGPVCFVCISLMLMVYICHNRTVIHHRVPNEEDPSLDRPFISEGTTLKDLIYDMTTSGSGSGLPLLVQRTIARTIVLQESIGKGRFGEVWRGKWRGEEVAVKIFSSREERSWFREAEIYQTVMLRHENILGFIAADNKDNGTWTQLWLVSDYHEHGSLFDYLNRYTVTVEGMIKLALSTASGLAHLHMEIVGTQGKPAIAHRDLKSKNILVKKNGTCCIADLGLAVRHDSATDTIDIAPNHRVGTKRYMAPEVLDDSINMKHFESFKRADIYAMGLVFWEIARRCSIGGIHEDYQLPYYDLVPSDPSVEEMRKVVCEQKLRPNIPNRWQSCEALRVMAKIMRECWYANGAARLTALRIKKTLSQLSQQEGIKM
How it was run: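 After a 60 min room-temperature preincubation of ALK5 with compound, phosphorylation proceeds 60 min at 37 °C on ATP addition (125 μM as 5× stock). Detection: Eu-labelled phospho-Thr1342 Topo IIα antibody in EDTA buffer, pH 7.0; emission 665 nm.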

[2] = system: TGF-β-stimulated SMAD3 phosphorylation in BEAS-2B cells; experiment: Cellular ALK5 potency assay, inhibition of TGF-β stimulated pSMAD3 formation in BEAS-2B cells; type: cell-based; settings: Homo sapiens; inhibition of TGF-β stimulated pSMAD3 formation, BEAS-2B cells; read-out: BEAS2B pIC50 (converted)
How it was run: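 BEAS-2B human lung epithelial cells pre-treated 1 h at 37° C with compound in HBSS/25 mM HEPES/1% BSA, then stimulated 30 min with 10 ng/mL TGF-β (final). Lysates assayed for pSMAD3 by AlphaLISA; pIC50 from dose-dependent change versus stimulated untreated cells.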

Structure (SMILES) | Ki [1] | IC50 [2]
Cc1cccc(-c2[nH]cnc2-c2ccc3ncc(C(=O)O[C@@H]4CC[C@@H](N)C4)cc3c2)n1 (racemic) [Compound 766, [rac-(1R,3R)-3-aminocyclopentyl] 6-[5-(6-methyl-2-pyridyl)-1H-imidazol-4-yl]quinoline-3-carboxylate] | 0.0398 to 0.316 nM | 25.1 to 158 nM
COC(=O)[C@H]1CN(c2cnc3ccc(-c4c[nH]nc4-c4cccc(C)n4)nc3c2)CCN1 [Compound 442, methyl (2R)-4-[6-[3-(6-methyl-2-pyridyl)-1H-pyrazol-4-yl]-1,5-naphthyridin-3-yl]piperazine-2-carboxylate] | 0.0398 to 0.316 nM | 25.1 to 158 nM
Cc1nc(-c2n[nH]cc2-c2ccc3ncc(-c4nc(C)c(CCN)[nH]4)cc3n2)ccc1F [Compound 483, 2-[2-[6-[3-(5-fluoro-6-methyl-2-pyridyl)-1H-pyrazol-4-yl]-1,5-naphthyridin-3-yl]-4-methyl-1H-imidazol-5-yl]ethanamine] | 0.0398 to 0.316 nM | 200 to 1260 nM
Cc1cccc(-c2[nH]cnc2-c2ccc3ncc(NCCN4CCC5(CCNCC5)C4)cc3c2)n1 [Compound 703, N-[2-(2,8-diazaspiro[4.5]decan-2-yl)ethyl]-6-[5-(6-methyl-2-pyridyl)-1H-imidazol-4-yl]quinolin-3-amine] | 0.0398 to 0.316 nM | 25.1 to 158 nM
Cc1cccc(-c2n[nH]cc2-c2ccc3ncc(N4CCCN(CC(C)C)CC4)cc3n2)n1 [Compound 320, 7-(4-isobutyl-1,4-diazepan-1-yl)-2-[3-(6-methyl-2-pyridyl)-1H-pyrazol-4-yl]-1,5-naphthyridine] | 0.0398 to 0.316 nM | 200 to 1260 nM
Cc1cccc(-c2n[nH]cc2-c2ccc3nccc(C(=O)NCCCCCCNC(=O)[C@@H]4CCCN4C(=O)CN4CCOCC4)c3n2)n1 (racemic) [Compound 809, 6-[3-(6-methyl-2-pyridyl)-1H-pyrazol-4-yl]-N-[6-[[rac-(2S)-1-(2-morpholinoacetyl)pyrrolidine-2-carbonyl]amino]hexyl]-1,5-naphthyridine-4-carboxamide] | 0.398 to 3.16 nM | 200 to 1260 nM
CNCc1ccnc2ccc(-c3nc[nH]c3-c3cccc(C)n3)cc12 [Compound 100, N-methyl-1-[6-[5-(6-methyl-2-pyridyl)-1H-imidazol-4-yl]-4-quinolyl]methanamine] | 0.398 to 3.16 nM | 25.1 to 158 nM
CNCC1CN(c2cnc3ccc(-c4c[nH]nc4-c4cccc(C)n4)nc3c2)C1 [Compound 672, N-methyl-1-[1-[6-[3-(6-methyl-2-pyridyl)-1H-pyrazol-4-yl]-1,5-naphthyridin-3-yl]azetidin-3-yl]methanamine] | 0.0398 to 0.316 nM | 25.1 to 158 nM
Cc1cccc(-c2n[nH]cc2-c2ccc3ncc(CNCCN4CCOCC4)cc3n2)n1 [Compound 633, N-[[6-[3-(6-methyl-2-pyridyl)-1H-pyrazol-4-yl]-1,5-naphthyridin-3-yl]methyl]-2-morpholino-ethanamine] | 0.398 to 3.16 nM | 25.1 to 158 nM
Cc1cccc(-c2[nH]cnc2-c2ccc3ncc(-c4cccc(C(=O)OC5CNC5)n4)cc3c2)n1 [Compound 1128, azetidin-3-yl 6-[6-[5-(6-methyl-2-pyridyl)-1H-imidazol-4-yl]-3-quinolyl]pyridine-2-carboxylate] | 0.0398 to 0.316 nM | 25.1 to 158 nM
Cc1cccc(-c2n[nH]cc2-c2ccc3ncc(-c4cc[nH]n4)cc3n2)n1 [Compound 612, 2-[3-(6-methyl-2-pyridyl)-1H-pyrazol-4-yl]-7-(1H-pyrazol-3-yl)-1,5-naphthyridine] | 0.0398 to 0.316 nM | 25.1 to 158 nM
Cc1cccc(-c2[nH]cnc2-c2ccc3ncc(-c4csc(C(=O)OC[C@@H]5CCCCN5)c4)cc3c2)n1 [Compound 1213, [(2S)-2-piperidyl]methyl 4-[6-[5-(6-methyl-2-pyridyl)-1H-imidazol-4-yl]-3-quinolyl]thiophene-2-carboxylate] | < 0.0316 nM | 25.1 to 158 nM
